Experiments:
[1] = target: T1, GSTP1 V104A (Homo sapiens, UniProt P09211, I105A); assay: Microscale thermophoresis (MST), V104A; assay type: binding; settings: mean ± SEM, three experiments
T1 construct: hexahistidine tag followed by a thrombin site (N); made in house; host or cells: Escherichia coli BL21 (DE3)
Procedure: (§1) Since Tris buffer is incompatible with MST labeling, GSTP1 and its mutants were performed an initial buffer exchange to 20 mM HEPES pH 7.6, 200 mM NaCl before labeling. Then, the proteins were fluorescently labeled using Monolith Protein Labeling Kit RED-NHS 2nd generation dye (NanoTemper Technology, Munich, Germany) according to the protocol. MNPC was prepared with a series of concentrations (varying from 2 mM to 11 nM) at a dilution ratio of 1: 2. Six microliters of the fluorescence-labeled GSTP1 or mutations was mixed with 6 μl of variable concentration of MNPC and incubated for 10 min at room temperature. The mixtures were loaded into standard glass capillaries and analyzed on Monolith NT.115 at 25 °C, with 40% LED power and 100% Laser power in triplicate. Data were analyzed by NTAnalysis software to calculate the Kd values.

[2] = target: T2, NQO1 (Homo sapiens, UniProt P15559); assay: NQO1 activity assay (DCPIP reduction); assay type: biochemical; settings: purified recombinant protein, Fig. 3b; read-out: IC50, inhibition of NQO1 activity
T2 construct: hexahistidine tag followed by a thrombin site (N); made in house; host or cells: Escherichia coli BL21 (DE3)
T2 sequence (P15559 whole entry): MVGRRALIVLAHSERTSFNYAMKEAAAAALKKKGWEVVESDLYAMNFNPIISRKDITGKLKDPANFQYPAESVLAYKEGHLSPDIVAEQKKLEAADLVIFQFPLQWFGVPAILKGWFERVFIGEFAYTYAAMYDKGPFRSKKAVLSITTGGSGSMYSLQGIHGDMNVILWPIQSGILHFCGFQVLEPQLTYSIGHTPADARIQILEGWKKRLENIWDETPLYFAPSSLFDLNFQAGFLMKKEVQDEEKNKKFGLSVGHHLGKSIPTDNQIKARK
Procedure: NQO1 activity was measured essentially as described previously. Assays were performed in 25 mM Tris–HCl, pH 7.4, 0.7 mg/mL BSA, 250 mM sucrose, 0.2 mM NADPH and 40 μM dichlorophenolindophenol (DCPIP) in the presence of NQO1 protein with 10, 5, 2.5, 1.25, 0.625, 0.3125, 0.15625 and 0 μM of MNPC. It is analyzed for the reduction of DCPIP measured at 600 nm.

[3] = target: T3, wild-type GSTP1 (Homo sapiens, UniProt P09211, I105V); assay: GSTP1 kinetic assay (GSH/CDNB conjugation), wild type; assay type: biochemical; settings: Supplementary Table 1, mean ± SEM (n=3), 30 min pre-incubation; read-out: IC50 (μM), GSTP1 WT
T3 construct: hexahistidine tag followed by a thrombin site (N); made in house; host or cells: Escherichia coli BL21 (DE3)
T3 sequence (P09211 whole entry I105V): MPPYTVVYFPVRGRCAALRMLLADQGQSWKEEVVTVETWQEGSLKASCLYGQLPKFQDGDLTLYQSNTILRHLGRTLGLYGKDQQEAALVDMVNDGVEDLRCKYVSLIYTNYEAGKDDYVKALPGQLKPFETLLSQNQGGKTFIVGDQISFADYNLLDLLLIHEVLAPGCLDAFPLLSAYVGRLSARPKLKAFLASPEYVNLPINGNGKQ
Procedure: (§2) The enzymatic activity of GSTP1 and its mutations was measured through the increased absorbance at 340 nm, which derived from the conjugation of reduced glutathione (GSH) and 1-chloro-2,4-dinitrobenzene (CDNB). The conjugation was initiated by adding CDNB to the mixture of GSH and GSTP1 or its mutants, and OD was immediately and continually measured for 20 min at 25 °C. The final assay mixture included 1 mM CDNB, 1 mM GSH in the buffer of 100 mM potassium phosphate pH 6.5, 1 mM EDTA. The inhibitory potency of MNPC versus GSTP1 or mutants was determined by calculating the residual activity after incubated with MNPC for 30 min at room temperature. Parallel control was run to monitor spontaneous conjugation of GSH and CDNB in the absence of the enzyme, and absorbance change of the control was used for the correction of an enzymatic reaction. The inhibition rate in triplicate was calculated by GraphPad Prism software (GraphPad, San Diego, CA) to give IC50 using nonlinear regression analysis.

[4] = target: T4, AEP (asparagine endopeptidase) (Homo sapiens, UniProt Q99538); assay: AEP activity assay in cell lysates; assay type: cell-based; settings: U87MG/EGFRvIII lysates, 0-5 μM
T4 construct: endogenous in cells; host or cells: U87MG/EGFRvIII cells (lysate)
T4 sequence (Q99538 18-433): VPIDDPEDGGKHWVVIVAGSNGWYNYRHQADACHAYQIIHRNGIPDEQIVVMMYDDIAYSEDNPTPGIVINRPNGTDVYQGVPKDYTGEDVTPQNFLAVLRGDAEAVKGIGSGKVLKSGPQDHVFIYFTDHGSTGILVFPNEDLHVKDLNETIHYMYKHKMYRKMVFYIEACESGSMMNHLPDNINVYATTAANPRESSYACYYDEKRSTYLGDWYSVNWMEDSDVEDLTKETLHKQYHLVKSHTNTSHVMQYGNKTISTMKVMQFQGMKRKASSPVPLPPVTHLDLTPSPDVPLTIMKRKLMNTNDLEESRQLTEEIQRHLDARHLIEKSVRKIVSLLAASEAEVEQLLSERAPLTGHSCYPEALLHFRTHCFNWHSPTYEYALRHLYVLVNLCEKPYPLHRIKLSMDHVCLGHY
Procedure: After different treatments, cell lysates were incubated in 200 μl assay buffer (20 mM citric acid, 60 mM Na2HPO4, 1 mM EDTA, 0.1% CHAPS and 1 mM DTT, pH 6.0) containing 20 μM AEP substrate Z-Ala-Ala-Asn-AMC (Bachem, USA). AMC released by substrate cleavage was quantified by measuring every 10 min at 460 nm in a fluorescence plate reader at 37 °C in kinetic mode for the total time of 1 h.

[5] = target: T5, GSTP1 F8A (Homo sapiens, UniProt P09211, F9A/I105V); assay: GSTP1 kinetic assay, F8A mutant; assay type: biochemical; settings: mean ± SEM (n=3)
T5 construct: hexahistidine tag followed by a thrombin site (N); made in house; host or cells: Escherichia coli BL21 (DE3)
T5 sequence (P09211 whole entry F9A/I105V): as the sequence (P09211 whole entry I105V) above, with F9A counted along it
Procedure: as §2

[6] = target: T6, GSTP1 F8A/Y108A (Homo sapiens, UniProt P09211, F9A/I105V/Y109A); assay: GSTP1 kinetic assay, F8A/Y108A mutant; assay type: biochemical; settings: mean ± SEM (n=3)
T6 construct: hexahistidine tag followed by a thrombin site (N); made in house; host or cells: Escherichia coli BL21 (DE3)
T6 sequence (P09211 whole entry F9A/I105V/Y109A): as the sequence (P09211 whole entry I105V) above, with F9A, Y109A counted along it
Procedure: as §2

[7] = system: U87MG/EGFRvIII cells; assay: Transwell migration assay; assay type: cell-based, human; settings: 0-1 μM
Procedure: A total of 1 × 10^4 cells were seeded onto the upper part of a transwell chamber (BD Bioscience, USA) containing a membrane filter for migration assays. Serum-free medium was added to the upper well, and medium containing 10% FBS was added to the lower well. After different treatments and incubation at 37 °C with 5% CO2, the filters were stained with crystal violet. Five random fields were counted per chamber by using a microscope.

[8] = target: T5, GSTP1 F8A; assay: Microscale thermophoresis (MST), F8A; settings: n.b. = no clear binding detected
Procedure: as §1

T1 sequence (P09211 2-210 I105A): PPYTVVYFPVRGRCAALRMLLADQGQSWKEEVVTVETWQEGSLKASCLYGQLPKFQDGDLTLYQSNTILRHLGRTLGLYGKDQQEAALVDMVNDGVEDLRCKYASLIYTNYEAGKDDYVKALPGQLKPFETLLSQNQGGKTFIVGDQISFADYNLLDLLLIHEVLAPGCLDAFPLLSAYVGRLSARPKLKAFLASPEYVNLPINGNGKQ

Cc1onc(-c2ccccc2)c1C(=O)Nc1ncc([N+](=O)[O-])s1 [MNPC, 5-methyl-N-(5-nitro-thiazol-2-yl)-3-phenylisoxazole-4-carboxamide]
Kd [1]: 24.4 ± 1.95 µM | IC50 [2]: 0.926 µM | IC50 [3]: 0.4 ± 0.39 µM | Inhibition of AEP [4]: nor inhibited | IC50 [5]: 2.42 ± 0.36 µM | IC50 [6]: 4.01 ± 0.6 µM | Effect on migration [7]: no effect | Kd (μM), F8A [8]: n.b. and no detectable binding
